Reference: PubChem BioAssay (NCI)
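Interpolation was linear, between the two tested concentrations surrounding the appropriate level; five concentrations were tested over 48 hours in 96-well plates. TGI is the concentration that stops growth completely.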

Columns and labels:
Experiment in all cases: NCI tumour cell line growth inhibition, 48 h
COLO 205 colon = system: COLO 205 colon
HS 578T breast = system: HS 578T breast
CCRF-CEM leukemia = system: CCRF-CEM leukemia
MDA-N = system: MDA-N
NCI-H460 lung = system: NCI-H460 lung
HOP-92 NSCLC = system: HOP-92 NSCLC
NCI-H522 lung = system: NCI-H522 lung
ACHN renal = system: ACHN renal
TK-10 renal = system: TK-10 renal
K-562 leukemia = system: K-562 leukemia
786-0 renal = system: 786-0 renal
T-47D breast = system: T-47D breast
OVCAR-8 ovarian = system: OVCAR-8 ovarian
SF-539 CNS = system: SF-539 CNS
SK-MEL-5 melanoma = system: SK-MEL-5 melanoma
SNB-75 CNS = system: SNB-75 CNS
DU-145 prostate = system: DU-145 prostate
CAKI-1 renal = system: CAKI-1 renal
MDA-MB-231 breast = system: MDA-MB-231 breast
HCC-2998 colon = system: HCC-2998 colon

Row | Structure (SMILES) | TGI (COLO 205 colon) | TGI (HS 578T breast) | TGI (CCRF-CEM leukemia) | TGI (MDA-N) | TGI (NCI-H460 lung) | TGI (HOP-92 NSCLC) | TGI (NCI-H522 lung) | TGI (ACHN renal) | TGI (TK-10 renal) | TGI (K-562 leukemia) | TGI (786-0 renal) | TGI (T-47D breast) | TGI (OVCAR-8 ovarian) | TGI (SF-539 CNS) | TGI (SK-MEL-5 melanoma) | TGI (SNB-75 CNS) | TGI (DU-145 prostate) | TGI (CAKI-1 renal) | TGI (MDA-MB-231 breast) | TGI (HCC-2998 colon)
1 | CC1=CC[C@H](C(C)C)C(C(O)[C@@H](C)O[Si](c2ccccc2)(c2ccccc2)C(C)(C)C)C1=O (some centres undefined) | 47.6 µM | 67 µM | 63.8 µM | 53 µM | 37.2 µM | 37.9 µM | 37.6 µM | 31.1 µM | 31.7 µM | > 100 µM | 32.7 µM | 46.1 µM | 54.1 µM | 44.1 µM | 33.7 µM | 54.4 µM | 65.4 µM | 36.2 µM | 32.4 µM | 29 µM
2 | c1ccc(C2=NCCN2)c(C2=NCCN2)c1 | > 100 µM | > 100 µM | > 100 µM | > 100 µM | > 100 µM | > 100 µM | > 100 µM | > 100 µM | > 100 µM | > 100 µM | > 100 µM | > 100 µM | > 100 µM | > 100 µM | > 100 µM | > 100 µM | > 100 µM | > 100 µM | > 100 µM | > 100 µM
3 | CC(C)(C)OCC1NC(=O)[C@@H]2Cc3c([nH]c4ccccc34)C(c3ccccc3)N2C1=O (some centres undefined) | > 50 µM | > 50 µM | > 50 µM | > 50 µM | > 50 µM | > 50 µM | > 50 µM | > 50 µM | > 50 µM | > 50 µM | > 50 µM | > 50 µM | > 50 µM | > 50 µM | > 50 µM | > 50 µM | > 50 µM | > 50 µM | > 50 µM | > 50 µM
4 | NC(N)=NS(=O)(=O)c1ccc(NNc2c3ccccc3nc3c(C(=O)Nc4ccc(S(=O)(=O)N=C(N)N)cc4)cccc23)cc1 | > 100 µM | > 100 µM | 60.1 µM | > 100 µM | > 100 µM | > 100 µM | 67.1 µM | > 100 µM | > 100 µM | 63.6 µM | > 100 µM | > 100 µM | > 100 µM | > 100 µM | > 100 µM | > 100 µM | > 100 µM | > 100 µM | > 100 µM | > 100 µM
5 | O=C(N/N=C/c1c(-c2ccccc2)no[n+]1[O-])N1CCOCC1 | > 100 µM | > 100 µM | > 100 µM | > 100 µM | > 100 µM | > 100 µM | > 100 µM | > 100 µM | > 100 µM | > 100 µM | > 100 µM | > 100 µM | > 100 µM | > 100 µM | > 100 µM | > 100 µM | > 100 µM | > 100 µM | > 100 µM | > 100 µM
6 | COc1ccc(N2C(=O)[C@H]3[C@H]4CC(C(C)(C)C)CC[C@H]4c4c(n(C)c5ccccc45)[C@H]3C2=O)cc1 (some centres undefined) | > 100 µM | > 86 µM | > 100 µM | > 100 µM | > 63.8 µM | > 100 µM | > 82.4 µM | > 100 µM | > 100 µM | > 100 µM | > 100 µM | > 100 µM | > 100 µM | > 46.4 µM | > 100 µM | > 100 µM | > 100 µM | > 100 µM | > 100 µM | > 56.2 µM
7 | O=c1[nH]/c(=C/c2ccc(OCc3ccccc3)cn2)c(=O)[nH]/c1=C/c1ccc(F)cc1 | 6.75 µM | 15.7 µM | > 44.7 µM | 0.259 µM | > 34.2 µM | > 37.7 µM | 9.06 µM | > 76.2 µM | > 39.7 µM | > 36.4 µM | 30 µM | > 55.6 µM | > 47 µM | 19.3 µM | > 100 µM | 4.73 µM | > 34.8 µM | > 100 µM | > 51.3 µM | > 40.3 µM
8 | C=C1C(=O)O[C@@H]2[C@@H]3O[C@@H](C[C@@H]13)[C@](C)(O)CC/C=C(\C)CCC[C@@H]2C | 31.5 µM | 37.8 µM | 34.8 µM | 18.3 µM | 30.8 µM | 29.3 µM | 20.1 µM | 21.2 µM | 27.7 µM | 85.5 µM | 18.9 µM | 43.9 µM | 22.2 µM | 24.9 µM | 30.6 µM | 26.1 µM | 29.6 µM | 28.6 µM | 37.5 µM | 32.7 µM
9 | COC(=O)c1ccccc1C1CN=NC12Cc1ccccc1C2=O (centres undefined) | > 100 µM | > 100 µM | > 100 µM | > 100 µM | > 100 µM | > 100 µM | > 100 µM | > 100 µM | > 100 µM | > 100 µM | > 100 µM | > 100 µM | > 100 µM | > 100 µM | > 100 µM | > 100 µM | > 100 µM | > 100 µM | > 100 µM | > 100 µM
10 | O=C1CCCCCCCCCCC1CCCCCBr (centres undefined) | 35.8 µM | > 100 µM | 35 µM | > 100 µM | > 100 µM | 67.6 µM | 44.4 µM | 84 µM | > 100 µM | 34.5 µM | 86 µM | 73.9 µM | > 100 µM | 59.1 µM | 31.2 µM | 49.8 µM | > 100 µM | 95.1 µM | 45.1 µM | 38.6 µM
11 | CCCCCCc1ccc(C(=O)NO)cc1 | > 100 µM | > 100 µM | 52.8 µM | > 100 µM | 72.3 µM | > 100 µM | 80.4 µM | 88.5 µM | > 100 µM | > 100 µM | 46.6 µM | 82.9 µM | 35.6 µM | > 100 µM | > 100 µM | > 100 µM | 68.4 µM | 84.3 µM | > 100 µM | > 100 µM
12 | O=C(c1c(F)c(F)c(F)c(F)c1F)N1CCN(C(=O)c2c(F)c(F)c(F)c(F)c2F)C1=S | 18.6 µM | 18.9 µM | > 100 µM | 6.54 µM | 25.6 µM | 12.9 µM | 1.65 µM | 20.3 µM | 27 µM | > 100 µM | 27.3 µM | 24.2 µM | 12.9 µM | 24 µM | 19.6 µM | 23 µM | 27.2 µM | 6.89 µM | 14.4 µM | 22.7 µM
13 | COC(=O)[C@]12CC[C@H]3CC[C@H]([C@H]31)[C@H](c1ccccc1)N2 | 30.8 µM | 49.8 µM | 95.9 µM | 34.9 µM | 31.2 µM | 30.3 µM | 37.7 µM | 31.4 µM | 32 µM | 53.4 µM | 29.4 µM | 50.3 µM | 37 µM | 30.6 µM | 27.9 µM | 58.1 µM | 47.8 µM | 41.4 µM | 30.6 µM | 26.8 µM
14 | CCn1c(SCC(=O)N/N=C/c2ccccc2)nc2ccccc2c1=O | > 100 µM | 49.3 µM | > 100 µM | > 29.3 µM | 9.63 µM | > 79 µM | 27.5 µM | > 100 µM | > 91 µM | > 100 µM | 41.7 µM | > 100 µM | > 82.1 µM | 38.4 µM | > 100 µM | 54.5 µM | > 100 µM | 22.4 µM | 80.8 µM | > 100 µM
15 | O=C1c2ccccc2CN1c1ccc(OCCN2CCCCC2)cc1 | > 10 µM | > 10 µM | > 10 µM | > 10 µM | > 10 µM | > 10 µM | > 10 µM | > 10 µM | > 10 µM | > 10 µM | > 10 µM | > 10 µM | > 10 µM | > 10 µM | > 10 µM | > 10 µM | > 10 µM | > 10 µM | > 10 µM | > 10 µM
16 | CCN(CC)c1ccc2cc(C(N)=S)c(=N)oc2c1 | > 100 µM | > 100 µM | > 100 µM | > 100 µM | > 100 µM | > 100 µM | > 100 µM | > 100 µM | > 100 µM | > 100 µM | > 100 µM | > 100 µM | > 100 µM | > 100 µM | > 100 µM | > 100 µM | > 100 µM | > 100 µM | > 100 µM | > 100 µM
17 | O=c1c2cc(-c3ccccc3)sc2nc2n1N=C(c1ccc(Cl)cc1)CS2 | > 100 µM | > 100 µM | > 100 µM | > 100 µM | > 100 µM | > 100 µM | > 100 µM | > 100 µM | > 100 µM | > 100 µM | > 100 µM | > 100 µM | > 100 µM | > 100 µM | > 100 µM | > 100 µM | > 100 µM | > 100 µM | > 100 µM | > 100 µM
18 | CC(O)c1cc2c(s1)C(=O)c1ccsc1C2=O (centres undefined) | 3.23 µM | 0.566 µM | 0.781 µM | 0.0275 µM | – | 0.967 µM | 0.381 µM | 0.267 µM | 1.32 µM | 0.412 µM | 2.83 µM | 1.42 µM | 1.01 µM | 0.158 µM | 0.0198 µM | 0.166 µM | 0.0947 µM | 1.96 µM | 0.624 µM | 0.576 µM
